Measured values published in patent US8492331B2, “Methods for increasing absorption of peptides, peptidomimetics and other gastrointestinal transport protein substrates” (Nestec S.A., priority 2008, dated 2013).

Key:
in vivo [1] = conditions: both, dog, serum, oral, 15 mg/kg BW
Experimental: (§1) Methodology: The study was designed to test the feeding of melatonin on the absorption of cephalexin. Dogs (n=24, Body Weight (BW) range: 7-14 kg, age range: 1.5 to 14 yrs) were divided into a test group and a control group. The respective groups were balanced for gender.
(§2) The test group received a single dose of melatonin (1 mg/kg BW) at 12:00 pm, followed by a single dose of cephalexin (15 mg/kg BW) between 1:00 and 2:00 pm. Dosing with melatonin and cephalexin were both by oral administration to the dogs. The study evaluated cephalexin absorption by determining the pharmacokinetics of cephalexin appearance in serum subsequent to the melatonin administration. […] Samples for pharmacokinetic analysis were taken at 15, 30, 45, and 60 min, as well as 1.5, 2, 2.5, 3, 3.5, 4, 6, and 8 hours after oral dosing of cephalexin. Cephalexin concentration was determined by high pressure liquid chromatograph. Serum melatonin content was analyzed before and after the oral administration time, e.g., at −5, −3, −1, −0.5 hour before, 0 (dosing time), and at 0.5, 1, 2, 3, 4, and 6 hours after oral dosing of melatonin. Melatonin was quantified by radioimmunoassay procedures.

in vivo [2] = conditions: both, Labrador Retriever, dog, serum, oral, 15 mg/kg BW
Experimental: (§3) Methology: The study used n=40 Labrador Retriever dogs (BW range: 21-40 kg) to test the oral ingestion of melatonin compared to no-melatonin placebo control on the absorption of cephalexin, an antibiotic that also serves as a marker substrate for small peptides. The dogs were balanced for gender and the ages ranged from 1.5 to 9 years old. The study evaluated cephalexin absorption by orally administering a single 15 mg/kg BW dose of cephalexin to dogs at 2:00 pm, and subsequently determining the pharmakinetics of cephalexin appearance in serum. Dogs were randomized into 5 different treatment groups and received a single oral dose of melatonin (0.01, 0.1, 1, or 3 mg/kg BW) in a gelatin capsule or placebo simultaneously as the cephalexin dose. The oral dose was immediately followed by an oral administration of 60 mL of water by a 60 mL irrigation syringe. The melatonin dose diluent and placebo pill were the inert carrier, avicel. Cephalexin pharmakinetics were analyzed at 30 and 60 min after dosing and 1.5, 2, 2.5, 3, 4, and 6 hours after oral dosing of cephalexin. Cephalexin concentration was determined by high pressure liquid chromatograph.

[3] = both, Labrador Retriever, dog, in vivo, po, 3 mg/kg
Experimental: as §3

[4] = Day/night activity, Actiwatch monitor, 24 h before and 48 h after oral melatonin (Example 2); format: in vivo, Labrador Retriever dogs; conditions: for Activity (Actiwatch): start of day 2
Experimental: Dogs were fitted with an Actiwatch monitor 24 hours before oral ingestion of one of the melatonin doses, specifically at 2 PM on day 1. Following the oral administration of melatonin, the activity monitoring continued for another 48 hours, at which time the monitors were removed and the data collected for analysis. The dogs were exposed to 11.5 h light:12.5 h dark cycle, in which kennel lighting and natural light was combined over the 11.5 hour period. In the morning the light cycle began with exposure to kennel lighting at 6 AM and darkness onset occurred at 5:30 PM with sunset. For data analysis, activity was separated into three periods of time, afternoon light phase (2 PM to 5:30 PM, 3.5 h duration), dark phase (5:30 PM to 6 AM, 12.5 h duration), and morning light phase (6 AM to 2 PM, 8 h duration). For data analysis purposes, a 24 hour period is from 2:00 PM to 1:59 PM.

[5] = Serum melatonin pharmacokinetics after oral melatonin, radioimmunoassay (Example 1); format: in vivo, Dogs
Excerpt: Melatonin was quantified by radioimmunoassay procedures.

[6] = melatonin 1 mg/kg BW oral before cephalexin 15 mg/kg BW oral
Experimental: as §1, §2

[7] = Titration of oral melatonin dose on cephalexin absorption: serum pharmacokinetics of cephalexin (Example 2)
Experimental: as §3

For CC1=C(C(=O)O)N2C(=O)[C@@H](NC(=O)[C@H](N)c3ccccc3)[C@H]2SC1 [Cephalexin, cephalexin], the concentration at 0.25 h (in vivo [1]) was 790 ng/mL, the concentration at 0.5 h (in vivo [1]) was 4170 ng/mL and the concentration at 0.75 h (in vivo [1]) was 8190 ng/mL. The concentration at 1 h (in vivo [1]) was 10900 ng/mL, the concentration at 1.5 h (in vivo [1]) was 13900 ng/mL and the concentration at 2 h (in vivo [1]) was 13700 ng/mL. It also gave a concentration at 2.5 h (in vivo [1]) of 14300 ng/mL, a concentration at 3 h (in vivo [1]) of 13000 ng/mL and a concentration at 3.5 h (in vivo [1]) of 11800 ng/mL. It also gave a concentration at 4 h (in vivo [1]) of 9900 ng/mL, a concentration at 6 h (in vivo [1]) of 5910 ng/mL and a concentration at 8 h (in vivo [1]) of 3730 ng/mL. For the same compound, the concentration at 0.5 h (in vivo [2]) was 2010 ng/mL, the concentration at 1 h (in vivo [2]) was 6280 ng/mL and the concentration at 1.5 h (in vivo [2]) was 9920 ng/mL. For the same compound, the concentration at 2 h (in vivo [2]) was 11800 ng/mL, the concentration at 2.5 h (in vivo [2]) was 12400 ng/mL and the concentration at 3 h (in vivo [2]) was 12200 ng/mL. The concentration at 4 h (in vivo [2]) was 11300 ng/mL and the concentration at 6 h (in vivo [2]) was 7570 ng/mL.
With COc1ccc2[nH]cc(CCNC(C)=O)c2c1 [Melatonin, 5-methoxy-N-acetyltryptamine] the “Cephalexin AUC greater than placebo group” value [3] was 45-34, the “Activity (Actiwatch)” value ([4]; melatonin 0.01 mg/kg BW oral at 2 PM, Afternoon Light Phase (2 PM-5:30 PM), Day 1 (before dosing)) was 30064 and the “Activity (Actiwatch)” value ([4]; melatonin 0.01 mg/kg BW oral at 2 PM, Afternoon Light Phase (2 PM-5:30 PM), Day 2) was 44935. For the same compound, the “Activity (Actiwatch)” value ([4]; melatonin 0.01 mg/kg BW oral at 2 PM, Afternoon Light Phase (2 PM-5:30 PM), Day 3) was 39386, the “Activity (Actiwatch)” value ([4]; melatonin 0.01 mg/kg BW oral at 2 PM, Dark Phase (5:30 PM-6 AM), Day 1 (before dosing)) was 32346 and the “Activity (Actiwatch)” value ([4]; melatonin 0.01 mg/kg BW oral at 2 PM, Dark Phase (5:30 PM-6 AM), Day 2) was 30930. The “Activity (Actiwatch)” value ([4]; melatonin 0.01 mg/kg BW oral at 2 PM, Dark Phase (5:30 PM-6 AM), Day 3) was 34140, the “Activity (Actiwatch)” value ([4]; melatonin 0.01 mg/kg BW oral at 2 PM, Morning Light Phase (6 AM-2 PM), Day 1 (before dosing)) was 140160 and the “Activity (Actiwatch)” value ([4]; melatonin 0.01 mg/kg BW oral at 2 PM, Morning Light Phase (6 AM-2 PM), Day 2) was 128216. The “Activity (Actiwatch)” value ([4]; melatonin 0.01 mg/kg BW oral at 2 PM, Morning Light Phase (6 AM-2 PM), Day 3) was 120706, the “Activity (Actiwatch)” value ([4]; melatonin 0.1 mg/kg BW oral at 2 PM, Afternoon Light Phase (2 PM-5:30 PM), Day 1 (before dosing)) was 28140 and the “Activity (Actiwatch)” value ([4]; melatonin 0.1 mg/kg BW oral at 2 PM, Afternoon Light Phase (2 PM-5:30 PM), Day 2) was 30124. For the same compound, the “Activity (Actiwatch)” value ([4]; melatonin 0.1 mg/kg BW oral at 2 PM, Afternoon Light Phase (2 PM-5:30 PM), Day 3) was 21497, the “Activity (Actiwatch)” value ([4]; melatonin 0.1 mg/kg BW oral at 2 PM, Dark Phase (5:30 PM-6 AM), Day 1 (before dosing)) was 38464 and the “Activity (Actiwatch)” value ([4]; melatonin 0.1 mg/kg BW oral at 2 PM, Dark Phase (5:30 PM-6 AM), Day 2) was 30753. For the same compound, the “Activity (Actiwatch)” value ([4]; melatonin 0.1 mg/kg BW oral at 2 PM, Dark Phase (5:30 PM-6 AM), Day 3) was 32849, the “Activity (Actiwatch)” value ([4]; melatonin 0.1 mg/kg BW oral at 2 PM, Morning Light Phase (6 AM-2 PM), Day 1 (before dosing)) was 133337 and the “Activity (Actiwatch)” value ([4]; melatonin 0.1 mg/kg BW oral at 2 PM, Morning Light Phase (6 AM-2 PM), Day 2) was 130972. The “Activity (Actiwatch)” value ([4]; melatonin 0.1 mg/kg BW oral at 2 PM, Morning Light Phase (6 AM-2 PM), Day 3) was 99800, the “Activity (Actiwatch)” value ([4]; melatonin 1 mg/kg BW oral at 2 PM, Afternoon Light Phase (2 PM-5:30 PM), Day 1 (before dosing)) was 34376 and the “Activity (Actiwatch)” value ([4]; melatonin 1 mg/kg BW oral at 2 PM, Afternoon Light Phase (2 PM-5:30 PM), Day 2) was 44889. The “Activity (Actiwatch)” value ([4]; melatonin 1 mg/kg BW oral at 2 PM, Afternoon Light Phase (2 PM-5:30 PM), Day 3) was 31184, the “Activity (Actiwatch)” value ([4]; melatonin 1 mg/kg BW oral at 2 PM, Dark Phase (5:30 PM-6 AM), Day 1 (before dosing)) was 47178 and the “Activity (Actiwatch)” value ([4]; melatonin 1 mg/kg BW oral at 2 PM, Dark Phase (5:30 PM-6 AM), Day 2) was 26733. For the same compound, the “Activity (Actiwatch)” value ([4]; melatonin 1 mg/kg BW oral at 2 PM, Dark Phase (5:30 PM-6 AM), Day 3) was 49958, the “Activity (Actiwatch)” value ([4]; melatonin 1 mg/kg BW oral at 2 PM, Morning Light Phase (6 AM-2 PM), Day 1 (before dosing)) was 155482 and the “Activity (Actiwatch)” value ([4]; melatonin 1 mg/kg BW oral at 2 PM, Morning Light Phase (6 AM-2 PM), Day 2) was 151573. For the same compound, the “Activity (Actiwatch)” value ([4]; melatonin 1 mg/kg BW oral at 2 PM, Morning Light Phase (6 AM-2 PM), Day 3) was 126103, the “Activity (Actiwatch)” value ([4]; melatonin 3 mg/kg BW oral at 2 PM, Afternoon Light Phase (2 PM-5:30 PM), Day 1 (before dosing)) was 30548 and the “Activity (Actiwatch)” value ([4]; melatonin 3 mg/kg BW oral at 2 PM, Afternoon Light Phase (2 PM-5:30 PM), Day 2) was 45730. The “Activity (Actiwatch)” value ([4]; melatonin 3 mg/kg BW oral at 2 PM, Afternoon Light Phase (2 PM-5:30 PM), Day 3) was 35034, the “Activity (Actiwatch)” value ([4]; melatonin 3 mg/kg BW oral at 2 PM, Dark Phase (5:30 PM-6 AM), Day 1 (before dosing)) was 33517 and the “Activity (Actiwatch)” value ([4]; melatonin 3 mg/kg BW oral at 2 PM, Dark Phase (5:30 PM-6 AM), Day 2) was 35926. For the same compound, the “Activity (Actiwatch)” value ([4]; melatonin 3 mg/kg BW oral at 2 PM, Dark Phase (5:30 PM-6 AM), Day 3) was 33492, the “Activity (Actiwatch)” value ([4]; melatonin 3 mg/kg BW oral at 2 PM, Morning Light Phase (6 AM-2 PM), Day 1 (before dosing)) was 139265 and the “Activity (Actiwatch)” value ([4]; melatonin 3 mg/kg BW oral at 2 PM, Morning Light Phase (6 AM-2 PM), Day 2) was 153805. The “Activity (Actiwatch)” value ([4]; melatonin 3 mg/kg BW oral at 2 PM, Morning Light Phase (6 AM-2 PM), Day 3) was 117374, the “Activity during the dark phase immediately following oral ingestion, compared to placebo” value ([4]; melatonin 0.01, 0.1, and 1 mg/kg groups) was “decrease compared to the placebo groups” and the “Influence on activity, late afternoon light phase (2 pm to 5:30 pm)” value ([4]; oral melatonin 0.01, 0.1, 1, and 3 mg/kg BW) was “did not demonstrate any influence of oral melatonin on activity”. For the same compound, the “Impact on activity in the daylight hours” value ([4]; oral melatonin 0.01-3 mg/kg BW) was “does not seem to impact activity of dogs in the daylight hours”, the Nighttime activity ([4]; oral melatonin administered in the afternoon) was “nighttime activity is slightly reduced” and the concentration at 1 h ([5]; dog, serum, melatonin 1 mg/kg BW oral at 12:00 pm, sample 1:00 pm) was 9.55 ng/mL. For the same compound, the concentration at 1.5 h ([5]; dog, serum, melatonin 1 mg/kg BW oral at 12:00 pm, sample 1:30 pm) was 8.97 ng/mL, the concentration at 2 h ([5]; dog, serum, melatonin 1 mg/kg BW oral at 12:00 pm, sample 2:00 pm) was 4.79 ng/mL and the concentration at 3 h ([5]; dog, serum, melatonin 1 mg/kg BW oral at 12:00 pm, sample 3:00 pm) was 1.46 ng/mL. It also gave a concentration at 4 h ([5]; dog, serum, melatonin 1 mg/kg BW oral at 12:00 pm, sample 4:00 pm) of 0.747 ng/mL, a concentration at 5 h ([5]; dog, serum, melatonin 1 mg/kg BW oral at 12:00 pm, sample 5:00 pm) of 0.273 ng/mL and a concentration at 7 h ([5]; dog, serum, melatonin 1 mg/kg BW oral at 12:00 pm, sample 7:00 pm) of 0.0885 ng/mL. The concentration at -3 h ([5]; dog, serum, melatonin 1 mg/kg BW oral at 12:00 pm, sample 9:00 am (before dosing)) was 0.0039 ng/mL, the concentration at -1 h ([5]; dog, serum, melatonin 1 mg/kg BW oral at 12:00 pm, sample 11:00 am (before dosing)) was 0.0005 ng/mL and the concentration at 0 h ([5]; dog, serum, melatonin 1 mg/kg BW oral at 12:00 pm, sample 12:00 pm (dosing time)) was 0.0184 ng/mL. For the same compound, the concentration at 0.5 h ([5]; dog, serum, melatonin 1 mg/kg BW oral at 12:00 pm, sample 12:30 pm) was 10.7 ng/mL, the “Melatonin appearance in serum” value ([5]; dogs that ingested melatonin 1 mg/kg BW, versus baseline levels of control dogs) was “increased significantly for up to 6 hours after ingestion” and the “Effect of oral melatonin on absorption of cephalexin” value [6] was “increased the absorption of cephalexin”. For the same compound, the “Amount of cephalexin appearing in the blood compared to the placebo group” value ([7]; melatonin 0.01 mg/kg BW oral) was “slightly decreased” and the “Effect on absorption of cephalexin compared to placebo dogs” value ([7]; melatonin 0.1, 1, and 3 mg/kg BW oral) was “an increase in the absorption of cephalexin”.
